# Biological target: Protein kinase C alpha type (Homo sapiens, UniProt P17252)
# Test: Displacement of [H-20]phorbol12,13-dibutyrate (PDBU) from Protein kinase C alpha
row,SMILES,Ki [nM]
1,CCCCCCCCCCCCC/C=C1/CC(CO)(COC(C)=O)OC1=O (configuration not stated),34
2,CCCCCCCCCCCCC/C=C1\CC(CO)(COC(C)=O)OC1=O (configuration not stated),78

# Reference: ChEMBL document CHEMBL1129285, “Conformationally constrained analogues of diacylglycerol. 10. Ultrapotent protein kinase C ligands based on a racemic 5-disubstituted tetrahydro-2-furanone template” (J Med Chem, 1996)
